Patent publication US7429482B2, “Screening tools for discovery of novel anabolic agents” (United States of America as represented by the Department …, priority 2005, dated 2008)

Experiments:
[1] = Testosterone levels after replacement in rats; format: in vivo; details: rat, testosterone 0.7 mg/day continuous infusion
Procedure: Male Wistar rats weighing 200-250 gm (Taconic Farms, Germantown, N.Y.) were provided food and water ad libitum and were housed in a temperature and humidity controlled environment providing a 12:12 hour day-night cycle. For surgical procedures, animals were anesthetized with ketamine/xylazine. The left sciatic nerve was exposed by blunt dissection, and a 1 to 2 mm piece of this nerve was excised just below the level of the femoral head. A sham surgery was performed on the right hind limb in which the sciatic nerve was exposed but was not transected. Twenty eight days later, animals were anesthetized, and Alzet pumps were implanted subcutaneously on the back. […] Testosterone levels after replacement were approximately 15 nM, a high-normal range for rats of this age. Animals were sacrificed 3, 7 or 28 days after implantation of the miniosmotic pumps by inhalation of carbon dioxide. Gastrocnemius muscles were excised and weighed, then flash frozen on dry ice and stored at −80° C.

human IGF-1 promoter = test: Human IGF-1 promoter luciferase reporter assay in HepG2 cells; format: cell-based
From the text: pREP4.hAR, expressing full length human AR, and pCMV.Sport.β-Gal, expressing β-galactosidase under a CMV promoter, were as described (Zhao et al., Steroids 69: 357-366, 2004). pcDNA5.rGR, expressing rat glucocorticoid receptor, was provided by Dr. Diane Robins (University of Michigan). The rARC562G vector expressing rat AR with a C562G mutation in the DBD, which results in a loss of DNA binding. The IGF-1 reporter genes pOLuc.1630, pOLuc1300, pOLuc926, pOLuc 320 were provided by Dr. Peter Rotwein (Oregon Health & Science University). These reporters expressed firefly luciferase under the control of 320 to 1630 bases upstream of the transcriptional start site of the human IGF-1 promoter as described in (Kim et al., Mol Endocrinol 5: 1964-1972, 1991). pEGX 4T-1 hAR2, expressing GST fused to the N-terminus of AR DNA-binding domain, was provided by Robert J. Matusik, Ph.D. (Vanderbuilt University Medical Center). pRL-CMV expressing Renilla luciferase was from Promega (Madison, Wis.).
HepG2 cells (ATCC, Bethesda, Md.) were maintained in Dulbecco's modified Eagle's medium (DMEM), supplemented with 10% fetal bovine serum (FBS) and antibiotics (penicillin 100 U/ml, streptomycin 100 μg/ml). Cells were seeded at 5×10^4 cells/per well into wells of 24-well plates containing DMEM supplemented with 10% charcoal-dextran stripped FBS (CDS-FBS). The next day, cells were transfected with a total of 300 ng DNA per well using Lipofectamine Plus (Invitrogen) with plasmids as indicated in the figure legends. Three hours after transfection, cells were covered with DMEM supplemented with 10% CDS-FBS and either hormone dissolved in ethanol, or ethanol, as indicated in the figures. […] After overnight incubation, activities of firefly and Renilla luciferase were determined using the Dual Luciferase Assay system (Promega).
Reporter plasmids expressing firefly luciferase under the control of upstream regions of the IGF-1 promoter were constructed by PCR amplification of segments of interest using primers shown in Table 2, using pOLuc-1630 as a template. The location of each amplified fragment is relative to the transcriptional start site. PCR amplification was conduced using a high fidelity Taq polymerase (Pfx, Invitrogen). PCR products were cloned into pCR2.1-TOPO TA (Invitrogen) and the sequences of the inserts were verified. Inserts were excised with Kpn I and Xho I, and were subcloned into pGL3-Promoter (Promega) at these same sites. PGL3-Promoter expresses firefly luciferase under the control of a minimal promoter.

MuRF1 = test: Acute denervation: MuRF1 mRNA in EDL and soleus (qPCR); format: in vivo, rat; details: nandrolone 1.5 mg/kg/wk 14 days
Procedure: Male Wistar rats weighing 250 gm (Taconic Farms, Germantown, N.Y.) were provided food and water ad libitum and were housed in a temperature and humidity controlled environment providing a 12:12 hour day-night cycle. For surgical procedures, animals were anesthetized with ketamine/xylazine. The left sciatic nerve was exposed by blunt dissection, and a 1 to 2 mm piece of this nerve was excised just below the level of the femoral head. A sham surgery was performed on the right hind limb in which the sciatic nerve was exposed but was not transected. Model 2002 Alzet pumps were implanted subcutaneously on the back. […] A pellet containing 15 mg of testosterone (Innovative Research of America, Sarasota, Fla.) administered as a continuous infusion (5 mg/wk), or a pellet containing placebo, was inserted into a subcutaneous pouch. […] Because testosterone is known to have anabolic actions (Ferrando et al., Am J Physiol Endocrinol Metab 282: E601-E607, 2002; Mauras et al., J Clin Endocrinol Metab 83: 1886-1892, 1998; Urban et al., Am J Physiol 269: E820-E826, 1995), reductions in levels of this hormone could affect muscle mass and confound interpretation of the results. Animals were euthanized 14 days later by inhalation of carbon dioxide. […]
Total RNA was extracted from skeletal muscle (20 mg) by homogenization in guanidine thiocyanate using a Polytron followed by extraction using phenol-chloroform (Chomczynski and Sacchi, Anal Biochem 162: 156-159, 1987). […] Total RNA was then eluted and quantified by absorbance at 260 nm. […] Levels of gene expression in the denervated muscle were expressed as fold induction relative to muscle from the sham-denervated leg of animals administered vehicle. […] Fold-induction was determined using the 2^−ΔΔCt method, using expression of 18S RNA as the normalization control. […]

[2] = HepG2 + AR, increasing doses of testosterone
[3] = HepG2 + AR, testosterone (FIG. 17)

Row | SMILES | testosterone levels after replacement [1] | activation of the upstream promoter of the human IGF-1 gene (human IGF-1 promoter; Hep G2 cells, FIG. 18) | dose at which induction of luciferase expression begins, pGL3-230 (ARE1) (human IGF-1 promoter; HepG2 + AR) | induction of pGL3-32 at the lowest concentration tested (human IGF-1 promoter; HepG2 + AR, 0.05 nM testosterone) | maximal induction and sensitivity, pGL3-13A (ARE2) (human IGF-1 promoter; [2]) | plateau of induction, pGL3-32 (both AREs) (human IGF-1 promoter; [2]) | plateau of induction, pGL3-230 (ARE1) (human IGF-1 promoter; [2]) | increase in luciferase expression, construct containing ARE2 (pGL3-13A) (human IGF-1 promoter; HepG2 + AR, testosterone) | increase in luciferase expression, reporters including ARE1 (pGL3-230, pGL3-22) (human IGF-1 promoter; HepG2 + AR, testosterone) | induction of reporter containing both ARE1 and ARE2 (pGL3-32) (human IGF-1 promoter; HepG2 + AR, testosterone) | responsiveness of reporter with 100 bases downstream of ARE2 (pGL3-25a) (human IGF-1 promoter; HepG2 + AR, testosterone) | activation of reporter p3-13a (ARE2) (human IGF-1 promoter; [3]) | activation of reporter p3-32 (both AREs) (human IGF-1 promoter; [3]) | induction of luciferase expression with DBD mutant AR (AR-C562G) (human IGF-1 promoter; HepG2, pGL3-22, pGL3-13A, pGL3-32, testosterone 50 nM) | MuRF1 expression (MuRF1; denervated EDL) | MuRF1 expression (MuRF1; denervated soleus) | MuRF1 expression (MuRF1; sham-denervated soleus or EDL)
1 | C[C@]12CC[C@H]3[C@@H](CCC4=CC(=O)CC[C@@]43C)[C@@H]1CC[C@@H]2O [testosterone] | approximately 15 nM | activated | 0.25 nM | ~10 fold | intermediate | 25 fold | approximately 8 fold | more than 20 fold | more than 5 fold | greatest induction | Little androgen responsiveness | approximately 20 fold | ~30 fold | virtually abolished | – | – | –
2 | C[C@]12CC[C@H]3[C@@H](CCC4=CC(=O)CC[C@@H]43)[C@@H]1CC[C@@H]2O [nandrolone] | – | – | – | – | – | – | – | – | – | – | – | – | – | – | significantly reduced | significantly decreased | did not significantly affect
